Target: T1, EcLDCc-CatIBs (EcLDCc-TDoT fusion; constitutive L-lysine decarboxylase from E. coli) (Escherichia coli, UniProt P52095)
T1 construct: gene ldcC; full-length EcLDCc with C-terminal 3xGGGS linker and TDoT coiled-coil tag (tetrabrachion, Staphylothermus marinus), pET28, E. coli BL21(DE3)
T1 sequence (P52095 1-713): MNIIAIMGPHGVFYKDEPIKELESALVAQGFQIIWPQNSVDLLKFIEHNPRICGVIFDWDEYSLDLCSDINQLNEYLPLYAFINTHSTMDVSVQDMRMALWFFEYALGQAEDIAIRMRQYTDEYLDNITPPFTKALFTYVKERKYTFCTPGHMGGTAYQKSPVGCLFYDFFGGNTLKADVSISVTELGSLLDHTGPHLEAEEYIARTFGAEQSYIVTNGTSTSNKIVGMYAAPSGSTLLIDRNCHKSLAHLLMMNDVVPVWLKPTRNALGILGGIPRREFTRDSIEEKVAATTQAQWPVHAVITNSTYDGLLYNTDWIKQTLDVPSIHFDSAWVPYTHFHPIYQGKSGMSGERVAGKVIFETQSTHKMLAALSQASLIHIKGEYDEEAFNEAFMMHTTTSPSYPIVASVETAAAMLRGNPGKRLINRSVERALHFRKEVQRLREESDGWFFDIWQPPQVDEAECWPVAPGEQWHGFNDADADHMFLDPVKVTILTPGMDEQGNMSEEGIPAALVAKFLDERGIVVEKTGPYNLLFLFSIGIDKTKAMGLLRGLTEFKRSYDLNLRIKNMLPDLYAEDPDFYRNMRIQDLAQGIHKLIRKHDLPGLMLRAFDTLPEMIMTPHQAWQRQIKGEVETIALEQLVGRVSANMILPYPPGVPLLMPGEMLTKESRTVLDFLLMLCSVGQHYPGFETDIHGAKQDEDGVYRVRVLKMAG
Experiment: HPLC of […],5-diaminopentane formed, OPA derivatisation
Format: biochemical
Conditions: 50 mM KPi buffer, 10 mM L-lysine, 30 °C, pH 7-9 (general range; pH 9 differs); CatIB enzyme as prepared, not PLP-depleted

Cc1ncc(COP(=O)(O)O)c(C=O)c1O [pyridoxal-5′-phosphate]
% activity increase at 0.1 mM PLP: 5–15%
